Data: article PMC3747624, “Cloning and Characterization of EF-Tu and EF-Ts from Pseudomonas aeruginosa” (BioMed Research International, 2013)
Like-named read-outs stand apart in the source and are kept apart here.

Experiments:
[1] = target: T1, P. aeruginosa EF-Tu (Pseudomonas aeruginosa, UniProt P09591); experiment: GDP exchange initial velocity assay (nitrocellulose filter binding); format: biochemical; details: for Km: EF-Tu 0.64 μM, 37°C, Lineweaver-Burk, read-out: KM for the interaction of EF-Tu with GDP
T1 construct: made in house; host or cells: E. coli Rosetta 2(DE3), pET101/D-TOPO
Experimental: Nitrocellulose filter binding assays were used to determine GDP exchange by EF-Tu as previously described. Assays to determine the initial velocity of GDP exchange were in buffer B (50 mM Tris-HCl, (pH 7.5), 50 mM NH4Cl, and 10 mM MgCl2, 1.0 mM dithiothreitol (DTT)) containing 12 μM [^3H]GDP (500 cpm/pmol). Reactions were incubated at 37°C and were stopped by diluting the reaction mix to 2 mL in buffer B and immediately filtered through nitrocellulose (Whatman; Protran BA 85). Filters were washed three times with 2 mL of buffer B and allowed to dry, and the amount of EF-Tu·[^3H]GDP complex retained was determined by scintillation counting (Beckman Coulter LS 6500). Initial velocity reactions were from 1 to 4 min, and GDP concentrations were varied as indicated.
Historically, the GDP exchange assay has been used to determine the activity of EF-Tu. […] The kinetic parameters KM and Vmax for the interaction of P. aeruginosa EF-Tu with GDP were determined by inserting the initial velocity data into Lineweaver-Burk plots (Figure 4(b)).

[2] = target: T1, P. aeruginosa EF-Tu; experiment: Equilibrium dissociation constants of EF-Tu·GDP and EF-Tu·GTP complexes (dilution, nitrocellulose filter binding)
Experimental: Reactions were carried out to determine the equilibrium dissociation constants (K GDP and K GTP) for the interaction of P. aeruginosa EF-Tu with GDP and GTP. The reaction was carried out in buffer B containing 1.3 μM total P. aeruginosa EF-Tu and 12 μM [^3H]GDP (500 cpm/pmol) or [^3H]GTP (750 cpm/pmol). EF-Ts was added to 0.05 μM as indicated. To form EF-Tu·nucleotide complexes, the reactions were incubated for 2 h at 0°C. To determine the total amount of complex formed (defined as active amounts of EF-Tu), reactions were immediately filtered through nitrocellulose filters following incubation. Reactions to determine K GDP and K GTP were diluted by the addition of 5 mL of buffer B that had been preincubated at 37°C, 23°C, or 0°C. Incubation was continued at those temperatures after dilution for 10, 20, and 30 min, respectively. Remaining amounts of the complexes were determined by filtration through nitrocellulose filters.
The percentage of EF-Tu capable of exchanging GDP (active EF-Tu) was determined from assays described in Section 3.6 which measured the total EF-Tu·[^3H]GDP complexes formed. In these assays, saturating amounts of [^3H]GDP (12 μM) were incubated with EF-Tu on ice for 2 h, and the total labeled EF-Tu·[^3H]GDP complex was determined using nitrocellulose filter binding, which retained the complex but not free GDP. The maximum amount of EF-Tu·GDP complex observed would be equivalent to the concentration of EF-Tu capable of exchanging GDP. Approximately 50% of EF-Tu was capable of forming an EF-Tu·[^3H]GDP complex. In the subsequent experiments containing EF-Tu, the results were based on the concentration of active EF-Tu.
The equilibrium dissociation constants for the EF-Tu·GDP (K GDP) and EF-Tu·GTP (K GTP) complexes were calculated from measurements of the extent of dissociation of the complexes in dilute solutions. Both complexes were formed by incubation at […] for 2 h in 50 μL reactions (Section 3.3). […] To determine dissociation, the 50 μL reactions were diluted by addition of 5 mL of reaction mix (minus enzyme and nucleotide) that had been preincubated to 37°C, 23°C, or 0°C, and incubation was continued at these temperatures for 10, 20, and 30 min, respectively. These were the conditions used to determine the K GDP for interaction of E. coli EF-Tu with GDP, and we maintained the same conditions in the determination of the K GTP.
The concentration of complex immediately after dilution was approximately 6.0 × 10^−3 μM. After incubation, the remaining EF-Tu·GDP complex was determined. Total GDP was calculated as the amount of added [^3H]GDP plus GDP that had copurified with EF-Tu. Free GDP was the amount of total GDP minus complexes formed, and free EF-Tu was the amount of initial complex minus remaining complex. The equilibrium dissociation constants for the complexes were calculated using the following equation: (1) KGD/TP=[EF−Tufree][GD/TPfree]/[EF−Tu·GD/TP]. We observed KGDP values for EF-Tu that ranged from 30 to 75 nM in the absence of EF-Ts at the temperatures in which the EF-Tu·GDP complex was allowed to dissociate (Table 2). Previous studies to determine the KGDP governing the binding of GDP to EF-Tu in the E. coli system included EF-Ts in the assays, and therefore we also carried out assays to determine the KGDP in the presence of EF-Ts. There was no statistical change of the KGDP observed in the presence of EF-Ts (30 to 40 nM). These values are within 3-fold of that seen in the E. coli system in which the equilibrium dissociation constant (5 to 10 nM) was determined in the presence of EF-Ts.

[3] = tested on: E. coli EF-Tu; details: cited from earlier work
[4] = tested on: P. aeruginosa ribosomes; experiment: Poly(U)-dependent binding of Phe-tRNA^Phe ternary complex to the ribosomal A-site; format: biochemical, Pseudomonas aeruginosa; details: 3.2 μM EF-Tu, 1 μM ribosomes, GDPNP
Experimental: To determine ternary complex binding to the ribosome, a mixture containing 50 mM Tris-HCl, (pH 7.5), 0.1 mM spermine, 40 mM KCl, 4 mM MgCl2, 1.0 mM DTT, 0.3 mM GTP or guanosine 5′-[β,γ-imido]triphosphate (GDPNP), 0.15 mg/mL poly(U) mRNA, 0.06 μM P. aeruginosa EF-Ts, 3.2 μM EF-Tu, 1.0 μM P. aeruginosa ribosomes, and 0.75 μM [^3H]Phe-tRNA^Phe (25 cpm/pmol) was used. The concentration of EF-Tu was varied from 0.32 to 1.6 μM as indicated. All components were preincubated at 37°C for 15 min in the absence of ribosomes to allow ternary complex formation. Ribosomes were then added, and incubation was continued for an additional 15 min at the same temperature. The amounts of [^3H]Phe-tRNA^Phe bound to the ribosome, representing ternary complex, were analyzed using glass microfiber filter (Whatman) binding as previously described. Control reactions lacked either EF-Tu or ribosomes.
Aminoacylated tRNA is bound at the ribosomal A-site in a ternary complex. The amount of aminoacylated tRNAs that can be bound to the A-site of the ribosome in a ternary complex was measured using [^3H]Phe-tRNA^Phe in poly(U)-dependent assays. In the absence of poly(U), a basal level of ternary complex will bind to the ribosome. In these assays, GTP was replaced with the nonhydrolyzable analog GDPNP to prevent hydrolysis of the nucleotide and dissociation of EF-Tu. […]

[5] = target: Leu-tRNA^Leu and GTP (Pseudomonas aeruginosa, UniProt P09591); details: 1.2 μM [3H]Leu-tRNA^Leu, 0.5 mM GTP, 15 min 4°C, RNase A
Experimental: Ternary complex formation was assayed by examining the ability of EF-Tu to protect [^3H]Leu-tRNA^Leu ) from digestion by RNase A [21, 22]. EF-Tu (0, 0.6, 0.9, 1.2, 1.5, 1.8, 2.1, and 2.4 μM) was incubated in reaction mixtures (50 μL) containing 1.2 μM [^3H]Leu-tRNA^Leu, 0.5 mM GTP, 50 mM Tris-HCl, (pH 7.5), 1 mM DTT, 50 mM NH4Cl, and 6.5 mM MgCl2 for 15 min at 4°C. RNAase A was then added to a final concentration of 0.02 mg/mL and incubated for an additional 20 s. The reactions were stopped by the addition of 3 mL of ice-cold 5% trichloroacetic acid (TCA) and filtered through nitrocellulose filters (Whatman). Retention of [^3H]Leu signified EF-Tu protection of [^3H]Leu-tRNA^Leu from nuclease digestion [22].
To determine the ability of P. aeruginosa EF-Tu to form a ternary complex with Leu-tRNA^Leu and GTP, the nuclease protection assay was used [19, 22]. The nuclease protection assay measures the formation of a ternary complex by the ability of EF-Tu to protect the 3′ end of the tRNA with the covalently attached [^3H]Leu from digestion by RNase A [45]. […] Reactions contained enough RNase A to hydrolyze over 90% of the leucine away from tRNA^Leu .

[6] = target: Pseudomonas aeruginosa elongation factor Tu (Pseudomonas aeruginosa PAO1) (UniProt P09591)
Chain of Pseudomonas aeruginosa elongation factor Tu (Pseudomonas aeruginosa PAO1) (P09591 whole entry): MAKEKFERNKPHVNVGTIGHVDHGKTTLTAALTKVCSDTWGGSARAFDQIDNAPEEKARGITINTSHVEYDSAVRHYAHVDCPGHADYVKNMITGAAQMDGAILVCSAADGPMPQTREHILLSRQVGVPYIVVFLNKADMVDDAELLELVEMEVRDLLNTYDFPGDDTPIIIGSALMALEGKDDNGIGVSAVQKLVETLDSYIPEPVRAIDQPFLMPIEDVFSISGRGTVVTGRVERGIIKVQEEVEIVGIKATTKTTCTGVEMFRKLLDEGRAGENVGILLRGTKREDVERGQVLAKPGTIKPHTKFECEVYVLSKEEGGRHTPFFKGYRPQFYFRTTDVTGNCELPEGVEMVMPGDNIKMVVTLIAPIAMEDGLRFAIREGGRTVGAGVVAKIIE

T1 sequence (P09591 whole entry): as above
Chain of Leu-tRNA^Leu and GTP (P09591 whole entry): as above

Nc1nc2c(ncn2[C@@H]2O[C@H](COP(=O)(O)OP(=O)(O)O)[C@@H](O)[C@H]2O)c(=O)[nH]1 [GDP]
kcat obs for exchange of GDP by EF-Tu ([1]; absence of EF-Ts): 0.003 s⁻¹ | Km ([1]; absence of EF-Ts): 33 µM | kcat obs for exchange of GDP by EF-Tu ([1]; presence of EF-Ts 0.01 μM): 0.005 s⁻¹ | Km ([1]; presence of EF-Ts 0.01 μM): 2 µM | Kd ([2]; EF-Ts 0, 0°C, read-out: K GDP): 58 nM | Kd ([2]; EF-Ts 0, 23°C, read-out: K GDP): 38 nM | Kd ([2]; EF-Ts 0, 37°C, read-out: K GDP): 72 nM | Kd ([2]; EF-Ts 0.5 ×10^−3 μM, 0°C, read-out: K GDP): 43 nM | Kd ([2]; EF-Ts 0.5 ×10^−3 μM, 23°C, read-out: K GDP): 30 nM | Kd ([2]; EF-Ts 0.5 ×10^−3 μM, 37°C, read-out: K GDP): 34 nM | GDP bound more tightly than GTP [3]: up to 100 fold

Nc1nc2c(ncn2[C@@H]2O[C@H](COP(=O)(O)OP(=O)(O)OP(=O)(O)O)[C@@H](O)[C@H]2O)c(=O)[nH]1 [GTP]
Kd ([2]; EF-Ts 0, 0°C, read-out: K GTP): 150 nM | Kd ([2]; EF-Ts 0, 23°C, read-out: K GTP): 123 nM | Kd ([2]; EF-Ts 0, 37°C, read-out: K GTP): 175 nM | Kd ([2]; EF-Ts 0.5 ×10^−3 μM, 0°C, read-out: K GTP): 156 nM | Kd ([2]; EF-Ts 0.5 ×10^−3 μM, 23°C, read-out: K GTP): 125 nM | Kd ([2]; EF-Ts 0.5 ×10^−3 μM, 37°C, read-out: K GTP): 190 nM | binding of GTP weaker than binding of GDP (KGTP vs KGDP) ([2]; P. aeruginosa EF-Tu): up to 6 fold

EF-Tu: recombinant elongation factor Tu from Pseudomonas aeruginosa, cloned, expressed and purified
specific activity for the exchange of GDP by EF-Tu ([1]; absence of EF-Ts): 0.0047 µmol/min/mg | EF-Tu capable of forming an EF-Tu·[3H]GDP complex (active EF-Tu) ([2]; 12 μM [3H]GDP, on ice 2 h): Approximately 50% | EF-Tu forming a complex with each form of the nucleotide (GDP, GTP) ([2]; incubation 2 h in 50 μL reactions): approximately 50% | share of the ternary complex formed that bound to the ribosome ([4]; 15 min): approximately 90% | ribosomes with ternary complex bound to the A-site ([4]; within 15 min, 37°C): approximately 50% | EF-Tu active in ternary complex formation [5]: Up to 20%

B1: Pseudomonas aeruginosa elongation factor Ts (natural protein)
chain: AEITAAMVKELRERTGLGMMECKKALTAAGGDIEKAIDDMRAAGAIKAAKKAGNIAAEGSIAVKIAADNKAAVIIEVNSQTDFLALQDDFKGFVAESLEKAFNEKLTDAAPLVEAREEARLALVAKTGENVNIRRLTRVEGDVVGAYLHGHRIGVVVNLKGGNPELAKDIAMHVAASNPQFLSASEVSEEAIAKEKEIFLALNADKIAGKPENIVENMVKGRISKFLAEASLVEQPFVKNPEVKVGDLAKQAGAEIVSFVRYEVGEGIEKAEVDFAAEVAAQVAATKQ
[3H]GDP exchange by EF-Tu (0.64 uM, 1 uM GDP) with 0.05 uM EF-Ts against without EF-Ts, nitrocellulose filter binding, 15 to 120 s, 37°C [6]: 7 to 8 fold
